US11981695B2, “Linoleic acid derivatives, pharmaceutical composition or food composition comprising said linoleic acid derivatives, and their uses” (UNIVERSITÉ DE BOURGOGNE, priority 2018, dated 2024)
Entries after “also recorded” stand apart in the source; their conditions may differ.

Key:
CD36 = target: T1, CD36 (Mus musculus, UniProt Q08857); test: Ca2+ signaling in mouse taste bud cells in presence or absence of CD36 inhibitor SSO; assay type: cell-based; conditions: for action of CD36 inhibitor SSO on the increase in [Ca2+]i: 20 μM SSO, mouse taste bud cells; for CD36 agonist character: judged from suppression by SSO
T1 construct: freshly isolated and primary cultured mice type II taste bud cells (expressing GPR120 and CD36) are used; endogenous in cells; host or cells: primary mouse taste bud cells from fungiform papillae
Method: (§1) The mouse taste bud cells were seeded in 24-well plates (with glass bottom), containing poly-D-lysine for better adhesion to the surface. After 24 h, taste cells were incubated for 45 minutes with a fluorescent probe, Fura-2/AM (1 μM) in calcium buffer (110 mM NaCl, 5.4 mM, KCl, 25 mM, NaHCO3, 0.8 mM, MgCl2, 0.4 mM, KH2PO4, 20 mM, Hepes-Na, 0.33 mM, NaHPO4, 1.2 mM, CaCl2, pH 7.4). Then, the cells are washed with phosphate buffer saline (PBS) and taken up in calcium buffer.
(§2) The changes in intracellular Ca^2+ (F340/F380) were monitored under a Nikon microscope (TiU) by using an S Fluor 40× oil immersion objective.
(§3) Especially, the increases in [Ca^2+ ]i were measured as follows: the mice taste bud cells were cultured on Willico-Dish wells with a glass bottom and loaded with a fluorescent probe, Fura-2/AM. The changes in intracellular Ca^2+ (F340/F380) were monitored under the Nikon microscope (TiU) by using S-fluor 40× oil immersion objective. The planes were taken at Z intervals of 0.3 μm, and NIS-Elements software was used to deconvolve the images. The microscope was equipped with EM-CCD (Lucas) camera for real time recording of 16-bit digital images. The dual excitation fluorescence imaging system was used for studies of individual cells. The changes in intracellular Ca^2+ were expressed as ΔRatio, which was calculated as the difference between the peak F340/F380 ratio. The data were summarized from the large number of individual cells (20-40 cells in a single run, with 3-9 identical experiments done in at least three cell preparations). The results were analyzed with the NIS-elements software, the variation in [Ca^2+]i is expressed as Δ ratio (F340/F380 which was calculated with the difference of spectra at two wavelengths, i.e., 340 nm and 380 nm.
CD36: in order to assess if the linoleic acid derivatives according to the invention exert their actions via CD36, sulfo-N-succinimidyl oleate (SSO) was used. SSO is a CD36 inhibitor/blocker/antagonist.
Experiments were performed in the presence or absence of SSO with respect to calcium signaling to verify whether our analogs act well via this lipid receptor. Especially, for this assay, NKS-3, NKS-5 and linoleic acid (control) were tested.

mice (C57Bl/6 black) = test: Two-bottle preference test; assay type: in vivo, mouse; conditions: for preference versus control solution (xanthan gum) / effect on palatability of a sucrose-containing solution / preferred (optimal) concentration in two-bottle preference test: 12 h; for preference versus control solution (xanthan gum): 0.3% xanthan gum, test compound 10 to 200 μM or linoleic acid 0.2% (v/v); for ratio of LA preferred concentration to that of test compound: LA preferred at 7.13 mM or 0.2%; for effect on palatability of a sucrose-containing solution: sucrose versus sucrose plus test compound 50 μM; for preferred (optimal) concentration in two-bottle preference test: versus xanthan gum
Method: Eight weeks old, male mice (C57Bl/6 black) were purchased from the Janvier Elevage (Le Mans) and used for these experiments.
The mice are placed individually in cages in a controlled environment (humidity and constant temperature) and have free access to a standard diet. 6 hours before the tests, the mice are deprived of water.
During the behavioral experiments, the mice were offered two bottles simultaneously for 12 hours (night period).
The mice are subjected to a choice between the “control” solution and the experimental solution.
Experiment 1 (FIG. 5, FIG. 6A, FIG. 7) • control solutions contain 0.3% xanthan gum, w/v, (Sigma Life Science, USA) in water to reproduce lipid texture and minimize bias due to differences in appearance between the two bottles; • the experimental solution contains, in addition to xanthan gum, 0.3% (w/v), either the “test compound” according to the invention at a concentration varying from 10 to 200 μM (NKS-3, FIG. 6A or NKS-5, FIG. 7) or linoleic acid at 0.2% (v/v) (control test, FIG. 5). To avoid the preference for one side, the position of each bottle is changed during each test.
Experiment 2 (FIG. 6B and FIG. 8): gustatory properties • control solutions contain 2% of sucrose (w/v); • the experimental solution contains, in addition to sucrose (2% w/v), the “test compound” according to the invention (NKS-3, FIG. 6B or NKS-5, FIG. 8) at a concentration of 50 μM.
To estimate the consumption of control and experimental solutions, the bottles are weighed before and after each experiment. The mice are allowed to take rest for 48 hours between each experiment.

mouse taste bud cells = test: Ca2+ signaling (Fura-2/AM, F340/F380) in mouse taste bud cells; assay type: cell-based; conditions: for EC50: 0 to 200 μM, Δ ratio F340/F380, n=6, read-out: EC50 of dose-dependent increases in [Ca2+]i
Method: Briefly, lingual epithelium was separated by enzymatic dissociation which contained the following: elastase and dispase mixture, 2 mg/ml each, in Tyrode's buffer (120 mM NaCl; 5 mM KCl; 10 mM HEPES ((4-(2-hydroxyethyl)-1-piperazineethanesulfonic acid); 1 mM CaCl2; 1 mM MgCl2; 10 mM glucose; 10 mM Na pyruvate, pH 7.4). The taste bud cells were isolated by incubating lingual epithelium in RPMI 1640 medium containing 2 mM EDTA, 1.2 mg/ml elastase, 0.6 mg/ml collagenase (type 1), and 0.6 mg/ml trypsin inhibitor at 37° C. for 10 minutes, followed by centrifugation (600 g, 10 minutes). The cell populations, after separation, were suspended in fresh RPMI 1640 medium containing 10% fetal calf serum, 200 U/ml penicillin, and 0.2 mg/ml streptomycin, seeded onto a Poly-D-Lysine-coated dishes, and cultured for 24 hours. At the end of this period, the cells were used for the experiments or stained with trypan blue to assess their viability.
as §1, §2, §3

obese C57BL/6J mice [1] = test: Diet-induced obesity, body weight; assay type: in vivo, mouse; conditions: for body weight in obese mice: HFD, analogues in feeder bottles from 10th to 28th week, NKS-5 75 μM, NKS-3 50 μM; for body weight of control animals: normal diet
Method: (§4) C57BL/6J male mice, aged between 6 to 10 weeks (16-20 g), were obtained from Janvier Labs (France). They were housed individually in a controlled environment with a 12 h light/dark cycle with food (SAFE, France) and water ad libitum. The palm oil (Huilerie Vigean, France) was the main fat component in high-fat diets. The high-fat diet was prepared weekly and stored at 4° C. until further use. The study was conducted as per Declaration of Helsinki and European ethical guidelines for the care and use of animals for experimentation. All the experimental protocols (protocol number: 16158) were approved by the Regional Ethical Committee of the University of Burgundy (Dijon, France).
(§5) The mice were grouped at random (n=10/group) and fed with either of the following diets: standard diet (STD) or high-fat diet (HFD). The body weight, food, and water intake were measured, weekly.
(§6) After 10 weeks of feeding the diets, obese animals were divided into two groups: one groups continued to be fed on the same HFD; however, another group was fed on the same diet and received either NKS-3 or NKS-5) until 28th of weeks of experimentation. At the end, the animals were sacrificed, under a fasting condition, and used for different analysis in blood and different tissues.
In order to elucidate the beneficial effects and especially during obesity, experiments were conducted on obese C57BL/6J mice. […] In order to test the curative/interventional effects on obesity, the animals were divided into two groups: one group that consume only the high-fat diet (HFD) and the other consuming the same diet and also receiving NKS-3 or NKS-5 in adlibitum baby bottles/feeders. From the 10th week of the diet, lipid analogues were introduced into the bottles at concentrations that corresponded to their preference in the double choice test (NKS-5 at 75 μM; NKS-3 at 50 μM). […] In addition, the decrease in obesity was maintained until the 28th week of feeding a HFD (FIGS. 13A and 13B).

C57BL/6J mice = test: Liver histology in normal diet or HFD fed mice; assay type: in vivo, mouse; conditions: for liver steatosis in liver sections of obese mice: HFD
Method: as §4, §5, §6
The liver of the mice at the time of sacrifice were fixed in formaldehyde and then dehydrated by passaging into ethanoic media. The liver tissues were embedded into the paraffin and 5μ thick section were cut by the microtome as per standard procedures. The slides, containing tissues, were stained by hematoxylin and eosin dyes as per standard methods. The stained slides were observed under Zeiss light microscope at 10× or 20× magnifications.

GPR120 = target: T2, GPR120 (Mus musculus, UniProt Q7TMA4); test: Ca2+ signaling in mouse taste bud cells in presence or absence of GPR120 antagonist AH7614; assay type: cell-based; conditions: AH7614 20 μM, NKS-5 50 μM
T2 construct: freshly isolated and primary cultured mice type II taste bud cells (expressing GPR120 and CD36) are used; endogenous in cells; host or cells: primary mouse taste bud cells from fungiform papillae
T2 sequence (Q7TMA4 1-361): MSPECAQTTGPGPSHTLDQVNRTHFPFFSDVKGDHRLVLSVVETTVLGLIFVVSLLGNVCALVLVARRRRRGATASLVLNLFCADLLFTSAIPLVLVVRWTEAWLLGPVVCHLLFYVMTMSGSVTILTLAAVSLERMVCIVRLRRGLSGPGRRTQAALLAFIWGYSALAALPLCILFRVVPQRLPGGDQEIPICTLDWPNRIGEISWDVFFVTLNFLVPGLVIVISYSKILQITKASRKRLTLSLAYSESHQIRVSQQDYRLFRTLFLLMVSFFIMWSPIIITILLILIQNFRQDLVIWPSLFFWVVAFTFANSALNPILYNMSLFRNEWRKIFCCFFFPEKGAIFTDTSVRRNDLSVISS
Method: as §1, §2
as §3, with “The planes were taken at Z intervals of 0.3 μm, and NIS-Elements software was used to deconvolve the images. The microscope was equipped with EM-CCD (Lucas) camera for real time recording of 16-bit digital images.” left out, “The data were summarized from the large number of individual cells (20-40 cells in a single run, with 3-9 identical experiments done in at least three cell preparations).” left out, “nm. […]” for “nm.”

obese C57BL/6J mice [2] = test: Blood biochemical parameters in diet-induced obese mice (ELISA, automatic analyzer); assay type: in vivo, mouse; conditions: obese animals
Method: as §4, §5, §6
The rat/mouse insulin ELISA kit was obtained from EMD Millipore (USA). ELISA kits for CCK, PYY and GLP-1 were purchased from Cloud-Clone Corp. (USA). The ALAT (Alanine Amino Transferase) was determined by an automatic analyzer (Gilford Model 2000 system, a Beckman System T.R).

T1 sequence (Q08857 whole entry): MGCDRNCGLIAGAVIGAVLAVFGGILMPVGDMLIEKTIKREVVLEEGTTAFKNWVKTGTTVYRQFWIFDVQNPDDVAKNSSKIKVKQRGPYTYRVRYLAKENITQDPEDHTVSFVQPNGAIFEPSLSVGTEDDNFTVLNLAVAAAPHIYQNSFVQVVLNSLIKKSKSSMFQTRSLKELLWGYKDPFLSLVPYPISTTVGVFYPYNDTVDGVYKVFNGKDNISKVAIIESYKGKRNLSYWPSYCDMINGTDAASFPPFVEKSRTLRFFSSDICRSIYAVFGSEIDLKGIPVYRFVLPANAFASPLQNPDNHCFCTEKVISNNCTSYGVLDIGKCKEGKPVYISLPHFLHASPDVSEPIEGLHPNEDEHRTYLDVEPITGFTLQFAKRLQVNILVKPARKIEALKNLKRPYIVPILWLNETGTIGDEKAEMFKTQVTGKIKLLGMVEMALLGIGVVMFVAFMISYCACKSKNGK

SMILES	action of CD36 inhibitor SSO on the increase in [Ca2+]i (CD36; listed as LA)	preference versus control solution (xanthan gum) (mice (C57Bl/6 black); mice)	concentration preferred in two-bottle preference test (mice (C57Bl/6 black); mice, 7.13 mM or 0.2%)	increase in [Ca2+]i (mouse taste bud cells)	action of CD36 inhibitor SSO on the increase in [Ca2+]i (CD36)	CD36 agonist character (CD36)	ratio of LA preferred concentration to that of test compound (mice (C57Bl/6 black))	effect on palatability of a sucrose-containing solution (mice (C57Bl/6 black); mice)	preferred (optimal) concentration in two-bottle preference test (mice (C57Bl/6 black); mice)	body weight in obese mice (obese C57BL/6J mice [1])	body weight of control animals (obese C57BL/6J mice [1])	liver steatosis in liver sections of obese mice (C57BL/6J mice)	liver histology, normal diet fed mice (C57BL/6J mice)	EC50 (mouse taste bud cells)	effect of GPR120 inhibitor AH7614 on the increase in [Ca2+]i (GPR120)	blood concentration of ALAT (obese C57BL/6J mice [2])	circulating concentrations of IL-6 (obese C57BL/6J mice [2])	insulin concentrations (obese C57BL/6J mice [2])
CCCCC/C=C\C/C=C\CCCCCCCC(=O)O [Linoleic acid, linoleic acid]	completely blocked; also recorded: suppressed	strong preference	7.13 mM	huge increase														
CCCCC/C=C\C/C=C\CCCCCCCC(=O)OCC1(C)COC1 [NKS-5, (9Z,12Z)-(3-methyloxetan-3-yl)methyl octadeca-9,12-dienoate]		spontaneous preference		very rapid	partially inhibited; also recorded: curtailed, but not completely suppressed	partial agonist	93 times	increases the palatability	75 µM	significant decrease in body weight	no effect	curative effects	did not exert any effect	30 ± 0.01 µM	significantly curtailed, but not suppressed	decreased	decrease	decreases
CCCCC/C=C\C/C=C\CCCCCCCCP(=O)(OCC)OCC [NKS-3, diethyl (9Z,12Z)-octadeca-9,12-dien-1-ylphosphonate]		spontaneous preference		very rapid	completely blocked; also recorded: completely suppressed	complete CD36 agonist	140 times	failed to enhance the palatability	50 µM	significant decrease in body weight	no effect	curative effects	did not exert any effect	25 ± 0.01 µM		decreased	decrease	decreases
